ChEMBL document CHEMBL1155282, “Design, synthesis and preliminary biological evaluation of N-hydroxy-4-(3-phenylpropanamido)benzamide (HPPB) derivatives as novel histone deacetylase inhibitors” (Eur J Med Chem, 2009)

Experiments:
HCT-116 [1] = test: Cell cycle arrest in human HCT116 cells assessed as accumulation at G2 phase at 1 umol/L by flow cytometry; type: functional
HCT-116 [2] = test: Cell cycle arrest in human HCT116 cells assessed as accumulation at S phase at 1 umol/L by flow cytometry; type: functional
[3] = molecular target: Histone deacetylase (HDAC1 and HDAC2) (Homo sapiens, UniProt Q13547+Q92769); test: Inhibition of HDAC1/HDAC2 from human Hela nuclear extracts using [3H]acetylated histone peptide by colorimetry; type: protein assay
A549 = test: Antiproliferative activity against human A549 cells after 2 days by MTT assay; type: functional, cell-based; details: A549, 48 h
HCT-116 [4] = test: Antiproliferative activity against human HCT116 cells after 2 days by MTT assay; type: functional, cell-based; details: HCT-116, 48 h
HCT-116 [5] = test: Cell cycle arrest in human HCT116 cells assessed as accumulation at G1 phase at 1 umol/L by flow cytometry; type: functional

Compound | IC50 [3] [nM] | other results
O=C(CCc1ccc2c(c1)OCO2)Nc1ccc(C(=O)NO)cc1 | 400 | Activity (HCT-116 [1]): 48.8%; Activity (HCT-116 [2]): 34.11%; IC50 (A549): 500 nM; IC50 (HCT-116 [4]): 60 nM; Activity (HCT-116 [5]): 17.09%
COc1cc(CCC(=O)Nc2ccc(C(=O)NO)cc2)ccc1OCc1cccs1 | 300 | Activity (HCT-116 [1]): 47.16%; Activity (HCT-116 [2]): 24.33%; IC50 (A549): 80 nM; IC50 (HCT-116 [4]): 30 nM; Activity (HCT-116 [5]): 28.51%
COc1cc(CCC(=O)Nc2ccc(C(=O)NO)cc2)ccc1OCc1ccccc1Cl | 1200 | –
COc1cc(CCC(=O)Nc2ccc(C(=O)NO)cc2)ccc1OCc1ccc(C)cc1 | 1500 | –
COc1cc(CCC(=O)Nc2ccc(C(=O)NO)cc2)ccc1OCc1ccc(Cl)cc1 | 1400 | –
COc1cc(CCC(=O)Nc2ccc(C(=O)NO)cc2)ccc1OCc1ccccc1 | 700 | IC50 (A549): 600 nM; IC50 (HCT-116 [4]): 120 nM
CCCOc1ccc(CCC(=O)Nc2ccc(C(=O)NO)cc2)cc1OC | 1700 | –
COc1cc(CCC(=O)Nc2ccc(C(=O)NO)cc2)ccc1OCc1cccc(C)c1 | 2600 | –
COc1cc(CCC(=O)Nc2ccc(C(=O)NO)cc2)ccc1OCc1ccccc1C | 1800 | –
CCOc1ccc(CCC(=O)Nc2ccc(C(=O)NO)cc2)cc1OC | 2900 | –
COc1cc(CCC(=O)Nc2ccc(C(=O)NO)cc2)ccc1OCc1ccccn1 | 3900 | –
COc1cc(CCC(=O)Nc2ccc(C(=O)NO)cc2)ccc1OCc1ccc(Br)cc1 | 800 | –
COc1cc(CCC(=O)Nc2ccc(C(=O)NO)cc2)ccc1OCc1cccc(Br)c1 | 900 | –
COc1cc(CCC(=O)Nc2ccc(C(=O)NO)cc2)ccc1OC1CCCC1 | 4000 | –
COc1ccc(CCC(=O)Nc2ccc(C(=O)NO)cc2)cc1OC | 3300 | –
CCCCOc1ccc(CCC(=O)Nc2ccc(C(=O)NO)cc2)cc1OC | 1600 | –
COc1cc(CCC(=O)Nc2ccc(C(=O)NO)cc2)ccc1OCCC(C)C | 2900 | –
COc1cc(CCC(=O)Nc2ccc(C(=O)NO)cc2)ccc1OCc1ccccc1Br | 600 | IC50 (A549): 600 nM; IC50 (HCT-116 [4]): 100 nM
COc1cc(CCC(=O)Nc2ccc(C(=O)NO)cc2)ccc1OCc1cccc(Cl)c1 | 1600 | –
CCC(C)Oc1ccc(CCC(=O)Nc2ccc(C(=O)NO)cc2)cc1OC (centres undefined) | 2200 | –
